US20240024302A1, “SOLUBLE EPOXIDE HYDROLASE (sEH) INHIBITORS AND DUAL COX/sEH INHIBITORS FOR THE TREATMENT OF ARRHYTHMOGENIC CARDIOMYOPATHY” (BETH ISRAEL DEACONESS MEDICAL CENTER, INC., priority 2020, published 2024)
“Also recorded” adds a separate entry of the source.

Tested on: Neonatal rat ventricular myocytes (NRVM) expressing 2157del2 JUP
Assay: Immunofluorescence of junction proteins in ACM in vitro model
Format: cell-based
Settings: Jup2157del2 myocytes; 10 μM
Experimental: Neonatal rat ventricular myocytes (NRVM) were isolated from the ventricles of 1-day-old Wistar rat pups and plated on collagen-coated plastic chambers. 24 hours following seeding, the cells were transfected with an adenoviral construct expressing a mutant form of plakoglobin known to cause arrhythmogenic cardiomyopathy in patients (2157del2 JUP). […] Non-transfected cultures and cultures transfected with the adenoviral construct only served as negative and positive controls, respectively.
Immunofluorescence: Cell cultures were fixed with 4% paraformaldehyde and prepared for immunofluorescence analysis as previously described (1). […] Cy3-conjugated goat anti-mouse and anti-rabbit antibodies (Jackson Immunolabs) were used as secondary antibodies and DAPI was used to visualize the nuclei. Immunostained preparations were visualized by confocal microscopy and changes in spatial distribution of signal were assessed qualitatively.

Q: Which “ACM disease features/readouts overall, EET and EEZE” value does the source give for `CCCCCC1OC1CCCCCCC/C=C\CCCC(=O)O` (stereo not drawn) [14,15-EE-5(Z)E, reference compound] here?
A: Its value is “intensified ACM disease readouts; also recorded: intensifies these ACM disease features; also recorded: intensified these ACM features”.

Q: For `CCCCCC1OC1C/C=C\C/C=C\C/C=C\CCCC(=O)O` (stereo not drawn) [14,15-EET, reference compound], which “ACM disease features/readouts overall, EET and EEZE” value is on record?
A: The value was “produced potent salutary effects; also recorded: reversed”.

Same assay, conditions: Jup2157del2 myocytes; 2.017 500 nM, 1.045 1 μM; concentration not given for 1,002 and 3.023

Q: For `CC[C@H](C)C(=O)N1CCC(NC(=O)Nc2ccc(OC(F)(F)F)c(F)c2)CC1` [Compound 1.002], which “ACM disease features overall (plakoglobin, Cx43, pRelA/p65, TUNEL), sEH inhibitors” value is on record?
A: The value was “showed similar results”.

Q: Which “ACM disease features overall (plakoglobin, Cx43, pRelA/p65, TUNEL), sEH inhibitors” value does the source give for `O=C(Nc1ccc(OC(F)(F)F)cc1)N[C@H]1CC[C@H](Oc2ccc(C(=O)O)cc2)CC1` [Compound 3.023] here?
A: Its value is “showed similar results”.

Molecular target: T1, soluble epoxide hydrolase (sEH) (Homo sapiens, UniProt P34913)
T1 sequence (P34913 1-555): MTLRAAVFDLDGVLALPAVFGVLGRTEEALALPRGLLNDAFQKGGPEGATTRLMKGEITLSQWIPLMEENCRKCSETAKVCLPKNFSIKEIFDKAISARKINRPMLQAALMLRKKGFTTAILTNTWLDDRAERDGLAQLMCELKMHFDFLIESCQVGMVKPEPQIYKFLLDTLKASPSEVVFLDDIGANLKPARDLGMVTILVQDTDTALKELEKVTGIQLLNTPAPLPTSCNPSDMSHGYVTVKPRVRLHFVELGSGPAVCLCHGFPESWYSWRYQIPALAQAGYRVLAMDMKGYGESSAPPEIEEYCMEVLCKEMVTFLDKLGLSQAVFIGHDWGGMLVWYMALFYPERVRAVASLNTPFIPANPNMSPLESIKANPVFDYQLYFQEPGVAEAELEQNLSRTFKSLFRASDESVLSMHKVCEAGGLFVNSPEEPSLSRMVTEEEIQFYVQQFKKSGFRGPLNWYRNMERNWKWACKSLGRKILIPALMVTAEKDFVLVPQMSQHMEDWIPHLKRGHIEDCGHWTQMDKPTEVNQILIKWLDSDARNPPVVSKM
Assay: Human in vitro Ki and dissociation t1/2 from the enzyme (fluorescence signals)
Format: binding
Settings: based on fluorescence signals

Q: Which “Human In vitro t1/2 (time for half of the drug being dissociated from the enzyme)” value does the source give for `CC[C@H](C)C(=O)N1CCC(NC(=O)Nc2ccc(C(F)(F)F)nc2)CC1` here?
A: Its value is 3.7 min.

Tested on: not listed separately
Assay: Rat PK, single oral gavage
Format: in vivo
Settings: rat, in vivo, single dose 0.1 mg/kg

Q: Which Cmax does the source give for `O=C(Nc1ccc(OC(F)(F)F)c(F)c1)NC1CCN(C(=O)N2CCOCC2)CC1` here?
A: Its Cmax is 40 ± 2 nM.

Q: And the Tmax?
A: The Tmax was 2.9 ± 0.3 h.

Q: With `CCC(=O)N1CCC(NC(=O)Nc2ccc(OC(F)(F)F)cc2)CC1` [drawing 62] as the compound, how does the Cmax read?
A: Its Cmax is 133 ± 4 nM.

Q: What about the Tmax of the same compound?
A: The Tmax was 2.3 ± 0.4 h.

Q: For `Cc1occc1C(=O)N1CCC(NC(=O)Nc2ccc(OC(F)(F)F)cc2)CC1`, which Cmax is on record?
A: The Cmax was 133 ± 4 nM.

Q: And the Tmax?
A: The Tmax was 2.3 ± 0.4 h.

Q: For `CC(C)C(=O)N1CCC(NC(=O)Nc2ccc(OC(F)(F)F)c(F)c2)CC1`, which Cmax is on record?
A: Its Cmax is 84 ± 5 nM.

Q: What about the Tmax of the same compound?
A: Its Tmax is 2.8 ± 0.3 h.

Same assay, conditions: rat, in vivo, single dose 0.1 mg/kg, PEG 300

Q: With `O=C(Nc1ccc(OC(F)(F)F)c(F)c1)NC1CCN(C(=O)N2CCOCC2)CC1` as the compound, how does the AUC read?
A: The AUC was 0.327 ± 0.032 µM·h.

Q: With `CCC(=O)N1CCC(NC(=O)Nc2ccc(OC(F)(F)F)cc2)CC1` [drawing 62] as the compound, how does the AUC read?
A: The AUC was 1.08 ± 0.089 µM·h.

Q: Which AUC does the source give for `Cc1occc1C(=O)N1CCC(NC(=O)Nc2ccc(OC(F)(F)F)cc2)CC1` here?
A: Its AUC is 1.08 ± 0.089 µM·h.

Q: With `CC(C)C(=O)N1CCC(NC(=O)Nc2ccc(OC(F)(F)F)c(F)c2)CC1` as the compound, how does the AUC read?
A: The AUC was 0.637 ± 0.085 µM·h.

Same assay, conditions: rat, in vivo, single dose 0.1 mg/kg, read-out: Rat T1/2 (converted)

Q: For `O=C(Nc1ccc(OC(F)(F)F)c(F)c1)NC1CCN(C(=O)N2CCOCC2)CC1`, which half-life is on record?
A: The half-life was 3.6 ± 0.6 h.

Q: With `CCC(=O)N1CCC(NC(=O)Nc2ccc(OC(F)(F)F)cc2)CC1` [drawing 62] as the compound, how does the half-life read?
A: The half-life was 6 ± 0.7 h.

Q: Which half-life does the source give for `Cc1occc1C(=O)N1CCC(NC(=O)Nc2ccc(OC(F)(F)F)cc2)CC1` here?
A: Its half-life is 6 ± 0.7 h.

Q: For `CC(C)C(=O)N1CCC(NC(=O)Nc2ccc(OC(F)(F)F)c(F)c2)CC1`, which half-life is on record?
A: Its half-life is 2.7 ± 0.4 h.

Tested on: not listed separately
Assay: Mouse PK, single oral gavage
Settings: mouse, in vivo, po, 0.3 mg/kg, Mouse AUC, oral gavage, single dose 0.3 mg/kg, 20% PEG400 in oleic acid-rich triglyceride

Q: With `O=C(Nc1ccc(OC(F)(F)F)c(F)c1)NC1CCN(C(=O)N2CCOCC2)CC1` as the compound, how does the AUC read?
A: The AUC was 0.0982 ± 0.0001 µM·h.

Q: With `Cc1occc1C(=O)N1CCC(NC(=O)Nc2ccc(OC(F)(F)F)cc2)CC1` as the compound, how does the AUC read?
A: The AUC was 9.99 µM·h.

Q: For `CC(C)C(=O)N1CCC(NC(=O)Nc2ccc(OC(F)(F)F)c(F)c2)CC1`, which AUC is on record?
A: Its AUC is 4.78 µM·h.

Same assay, conditions: mouse, in vivo, po, 0.3 mg/kg, Mouse Cmax, oral gavage, single dose 0.3 mg/kg

Q: Which Cmax does the source give for `Cc1occc1C(=O)N1CCC(NC(=O)Nc2ccc(OC(F)(F)F)cc2)CC1` here?
A: Its Cmax is 409 nM.

Q: With `CC(C)C(=O)N1CCC(NC(=O)Nc2ccc(OC(F)(F)F)c(F)c2)CC1` as the compound, how does the Cmax read?
A: The Cmax was 162 nM.

Same assay, conditions: mouse, in vivo, po, 0.3 mg/kg, Mouse T1/2, oral gavage, single dose 0.3 mg/kg

Q: For `Cc1occc1C(=O)N1CCC(NC(=O)Nc2ccc(OC(F)(F)F)cc2)CC1`, which half-life is on record?
A: The half-life was 6.2 h.

Q: Which half-life does the source give for `CC(C)C(=O)N1CCC(NC(=O)Nc2ccc(OC(F)(F)F)c(F)c2)CC1` here?
A: The half-life was 4.8 h.

Same assay, conditions: mouse, in vivo, po, 0.3 mg/kg, Mouse Tmax, oral gavage, single dose 0.3 mg/kg

Q: For `Cc1occc1C(=O)N1CCC(NC(=O)Nc2ccc(OC(F)(F)F)cc2)CC1`, which Tmax is on record?
A: Its Tmax is 9 h.

Q: With `CC(C)C(=O)N1CCC(NC(=O)Nc2ccc(OC(F)(F)F)c(F)c2)CC1` as the compound, how does the Tmax read?
A: Its Tmax is 5.9 h.

Same assay, conditions: oral gavage, single dose 0.3 mg/kg

Q: For `CCC(=O)N1CCC(NC(=O)Nc2ccc(OC(F)(F)F)cc2)CC1` [drawing 62], which “Mouse T1/2” value is on record?
A: Its value is 12.1 h.

Same assay, conditions: oral gavage, single dose 0.3 mg/kg, 20% PEG400 in oleic acid-rich triglyceride

Q: For `CCC(=O)N1CCC(NC(=O)Nc2ccc(OC(F)(F)F)cc2)CC1` [drawing 62], which “Mouse AUC” value is on record?
A: The value was 10.65 µM·h.

Same assay, conditions: read-out: Mouse Cmax; oral gavage, single dose 0.3 mg/kg

Q: With `CCC(=O)N1CCC(NC(=O)Nc2ccc(OC(F)(F)F)cc2)CC1` [drawing 62] as the compound, how does the Cmax read?
A: The Cmax was 495 nM.
